What was measured:
[1] = test system: pulmonary aterial hypertension; conditions: injected intraperitoneally; cited from earlier work
DDAH2 = DDAH2 gene expression (real-time RT-PCR) in endothelial cells; format: cell-based; conditions: human umbilical endothelial cells, 24 hours, dose dependent, FIG. 1B
Procedure: (§1) Human umbilical endothelial cells were seeded in 6-well plates (50,000 cells per well) and incubated with EGM (endothelial cell growth medium with bullet kit, Lonza) overnight. Then, triplicate wells were treated with indicated concentrations of cerivastatin in 2 ml of EGM. After 24 hours, total RNA was extracted using the RNeasy Kit (Qiagen, Valencia, Calif. After reverse transcription (RT) using the High Capacity cDNA Reverse Transcription Kit (Applied Biosystems, Foster City, Calif.), PCR was performed using an ABI Prism 7500 Sequence Detection System (Applied Biosystems, Foster City, Calif.) and QuantiTect SYBR Green PCR Master Mix (Qiagen, Valencia, Calif.). All reactions were carried out in triplicate, and each mRNA copy level was quantified using comparative CT method. Expression of actin was used as an endogenous control in all experiments and relative fold changes were calculated. All data were expressed as the means±standard deviation. The gene-specific forward and reverse primer sequences were • 5′-[…]-3′(SEQ ID NO: 2) and 5′-[…]-3′ (SEQ ID NO: 3) for actin; • 5′-[…]-3′ (SEQ ID NO: 4) and 5′-ggggtgttgaagcaat-3′ (SEQ ID NO: 5) for DDAH-1; • 5′-[…]-3′ (SEQ ID NO: 6) and 5′-[…]-3′ (SEQ ID NO: 7) for DDAH-2.

DDAH1 = DDAH1 gene expression (real-time RT-PCR) in endothelial cells; format: cell-based; conditions: human umbilical endothelial cells, 24 hours, FIG. 1A
Procedure: as §1

rat model of PAH [2] = assay: RV hypertrophy (RV weight ratio) in MCT rat model of PAH; format: in vivo; conditions: intratracheal, twice weekly, 2 mg/ml in PBS, day 42, relative to MCT injection PAH model, FIG. 6
Procedure: (§2) PAH was induced in adult male Sprague-Dawley rats (˜375 to 425 g, n=12, Harlan Laboratories) by a single, subcutaneous injection of monocrotnil (MCT) (60 mg/kg; n=24). Schultze, A. E. and Roth, R. A. J. Toxicol. Environ. Health. B, Crit. Rev. 1(4): 271-346 (1998). The animals injected with MCT were randomly assigned to 2 groups that received intratracheal (I.T.) aerosol instillation (MicroSprayer® Aerosolizer Model IA-1B, PennCentury, Inc.) of PBS twice weekly (200 μl; n=6), and a second group received IT. aerosol instillation of Cerivastatin twice weekly (2 mg/ml in PBS; n=6 I.T. instillations of PBS and Cerivastatin were administered the day of MCT injection until the rats were euthanized on day 42. After recording hemodynamic measurements and collecting blood, the animals were euthanized under deep anesthesia (isoflurane 5%) and the lungs and heart were isolated. The RV free wall was dissected from the left ventricle and interventricular septum (IVS), and the wet weight of each was recorded. RV hypertrophy was obtained as a RV weight/(LV+IVS weights) ratio.

rat model of PAH [3] = assay: PA pressure by right heart catheterization in MCT rat model of PAH; format: in vivo; conditions: intratracheal, twice weekly, 2 mg/ml in PBS, day 42, relative to MCT injection PAH model
Procedure: as §2, with “42.” for “42. After recording hemodynamic measurements and collecting blood, the animals were euthanized under deep anesthesia (isoflurane 5%) and the lungs and heart were isolated. The RV free wall was dissected from the left ventricle and interventricular septum (IVS), and the wet weight of each was recorded. RV hypertrophy was obtained as a RV weight/(LV+IVS weights) ratio.”
Echocardiography was performed at day 14, 28, and 42. Right heart catheterization was performed on day 42 before being euthanized. Sedation was induced by placing the rat in an anesthesia induction chamber with gas flow at 1 l/min, and the isoflurane was delivered via vaporizer at 3-4%. After induction, the rat was intubated and remained anesthetized with inhalant isoflurane at 1% for echo and 2% for right heart catheterization.
A 1.4-F micromanometer-tipped Millar pressure catheter (Millar Instruments) was used to measure systolic (sPAP), mean (mPAP), and diastolic PA pressure (dPAP) in all rats. […]

CCR2 = CCR2 gene expression (real-time RT-PCR) in THP-1 cells; format: cell-based; conditions: human THP-1 cells, TNF-α + 10 μM statin, FIG. 2B
Procedure: THP-1 cells were obtained from the American Tissue Type Culture Collection (ATCC). Cells were maintained in RPMI-1640 (Mediatech, Manassas, Va.) containing 10% fetal bovine serum (FBS; Sigma-Aldrich) and 1% penicillin/streptomycin (Sigma-Aldrich), and incubated in a humidified incubator containing 5% CO2/95% air at 37° C. In all experiments, cells were seeded at the concentration of 5×10^5 cells/mL in 12 well plates and then various statins were added to the medium. After 1 h, […] at a final concentration of 100 ng/ml or TNF-[…] at a final concentration of 10 ng/mL was added to the cultures. Cell pellets were collected for RNA and protein isolation.
Total RNA was extracted using the RNeasy Kit (Qiagen, Valencia, Calif.) according to the manufacturer's instructions. After reverse transcription (RT) using the High Capacity cDNA Reverse Transcription Kit (Applied Biosystems, Foster City, Calif.), PCR was performed using an ABI Prism 7500 Sequence Detection System (Applied Biosystems, Foster City, Calif.) and QuantiTect SYBR Green PCR Master Mix (Qiagen, Valencia, Calif.). All reactions were carried out in triplicate, and each mRNA copy level was quantified using comparative CT method. Expression of actin was used as an endogenous control in all experiments and relative fold changes were calculated. All data were expressed as the means±standard deviation. […]

rat model of PAH [4] = assay: Echocardiography in MCT rat model of PAH; format: in vivo; conditions: intratracheal, twice weekly, 2 mg/ml in PBS
Procedure: PAH was induced in adult male Sprague-Dawley rats ( 375 to 425 g, n=12, Harlan Laboratories) by a single, subcutaneous injection of monocrotnil (MCT) (60 mg/kg; n=24). Schultze, A. E. and Roth, R. A. J. Toxicol. Environ. Health. B, Crit. Rev. 1(4): 271-346 (1998). The animals injected with MCT were randomly assigned to 2 groups that received intratracheal (I.T.) aerosol instillation (MicroSprayer® Aerosolizer Model IA-1B, PennCentury, Inc.) of PBS twice weekly (200 μl; n=6), and a second group received IT. aerosol instillation of Cerivastatin twice weekly (2 mg/ml in PBS; n=6 I.T. instillations of PBS and Cerivastatin were administered the day of MCT injection until the rats were euthanized on day 42. Echocardiography was performed at day 14, 28, and 42. Right heart catheterization was performed on day 42 before being euthanized. Sedation was induced by placing the rat in an anesthesia induction chamber with gas flow at 1 l/min, and the isoflurane was delivered via vaporizer at 3-4%. After induction, the rat was intubated and remained anesthetized with inhalant isoflurane at 1% for echo and 2% for right heart catheterization. After shaving the chest, 70% isopropyl alcohol was applied as the ultrasound transmission media and transthoracic echocardiography was performed (GE vivid i with […]-RS linear array transducer, 5.0-13.0 MHz). The 2-D modality was applied to measure PA diameter at the level of the pulmonary outflow tract from the parasternal short-axis view. PA acceleration time (PAAT) and PA flow velocity time integral (VTI) were measured using pulse-wave Doppler with the sample volume centrally positioned in the PA distal to the pulmonary valve. Angle correction was used to adjust the pulse-wave cursor such that it was positioned parallel to pulmonary artery flow. By combining PA VTI with the PA cross-sectional area, echocardiographically derived stroke volume was determined. M-mode was applied to measure right ventricular cavity thickness during end diastole using the parasternal long-axis view obtained from the right side of the rat.

| SMILES | improvement of pulmonary arterial hypertension [1] | effect on the expression of DDAH2 (relative mRNA level) (DDAH2) | effect on the expression of DDAH1 (relative mRNA level) (DDAH1) | right ventricular (RV) weight ratio (RV/(LV+septum)) (rat model of PAH [2]) | systolic pulmonary artery pressure (sPAP) (rat model of PAH [3]; FIG. 3) | mean pulmonary artery pressure (mPAP) (rat model of PAH [3]; FIG. 4) | CCR2 expression (CCR2) | pulmonary artery acceleration time (PAAT) (rat model of PAH [4]; FIG. 7A (plotted in ms)) | mean right ventricle thickening (RV cavity thickness) (rat model of PAH [4]; relative to MCT injection PAH model, FIGS. 5A and 5B) | PAAT as percent of the control (rat model of PAH [4]; MCT alone 40.5% of the control, FIG. 7B) |
| --- | --- | --- | --- | --- | --- | --- | --- | --- | --- | --- |
| CC(C)c1c(C(=O)Nc2ccccc2)c(-c2ccccc2)c(-c2ccc(F)cc2)n1CC[C@@H](O)C[C@@H](O)CC(=O)O [atorvastatin] | not | – | – | – | – | – | – | – | – | – |
| COCc1c(C(C)C)nc(C(C)C)c(/C=C/[C@@H](O)C[C@@H](O)CC(=O)O)c1-c1ccc(F)cc1 [cerivastatin, (3R,5S,6E)-7-[4-(4-fluorophenyl)-5-(methoxymethyl)-2,6-bis(propan-2-yl)pyridin-3-yl]-3,5-dihydroxyhept-6-enoic acid] | – | more than 600% | relatively small and non-concentration dependent effect | significantly reduced | statistically significant decrease | statistically significant decrease | reduces CCR2 | significantly increased | significantly reduced | 60.7 % of the control |

Reference: patent US8586527B2, “Cerivastatin to treat pulmonary disorders” (priority 2011, dated 2013)
